Results reported in paper PMC8406298, “Discovery of Fungus-Specific Targets and Inhibitors Using Chemical Phenotyping of Pathogenic Spore Germination” (mBio, 2021).
Several values for one entry are separate records, joined by “and”; a condition that tells them apart may be missing. Equal values may be shown once. Read-outs that look alike come from different tables or passages of the source.

Tests used:
[1] = tested on: Cryptococcus spores; assay: Quantitative germination assay (QGA), automated microscopy of spore germination; type: cell-based, Cryptococcus neoformans serotype D (deneoformans); details: for germination inhibition phenotype (chemical phenotype) in QGA: at phenotypic concentration
Protocol: In this automated microscopy-based assay, germination progression of spores is monitored as a function of changes in cell morphology over time (spores are small and oval; yeast are large and circular). Individual spores in a population (∼1 × 10^4 per sample) are measured to determine size (area) and shape (aspect ratio) from the onset of germination, and the data are collected for each cell over the time of germination (Fig. 1A).
Germination assays were modified from those described by Barkal et al. to introduce automation, increase throughput, and refine assay consistency ([12]). Briefly, 384-well plates (Thermo Scientific 142762) were loaded with 10^5 spores per well, and at 0 h, synthetic medium plus 2% dextrose (SD medium) containing the compounds of interest was added to the sample (final volume of 40 μl). All compounds were tested initially at 80 μM; however, concentrations were changed on a case-by-case basis for subsequent experiments. All assays and controls were performed with a final concentration of 0.8% DMSO (the compound solvent) unless specified otherwise. Spores were germinated at 30°C in a humidified chamber, and the same ∼5 × 10^3 cells were monitored every 2 h for 16 h. Imaging was performed on a Ti2 Nikon microscope, and each condition was visualized in a minimum of two individual wells with three fields of view acquired from each well. All images were analyzed as described previously based on cell shape and size using ImageJ. The population ratios of spores, intermediates, and yeast were determined. Error bars in plots are based on the variation among all fields of view acquired. Level of germination was determined by quantifying the decrease in the proportion of spores in a population, and rates were quantified by determining the change in this proportion over time. For all two-dimensional histograms, the x axis represents area from 0 μm^2 to 25 μm^2, and the y axis represents the aspect ratio from 0.4 to 1.
Cycloheximide (0.078 μM to 80 μM) (Dot Scientific, Inc. DSC81040-1), G418 (1.6 mM) (Fisher Scientific AAJ6267106), and puromycin (20 mM) (Dot Scientific, Inc. DSP33020-0.025) were tested with no DMSO (all were water soluble), whereas anisomycin (62.5 μM) (Sigma-Aldrich A9789-5MG) was tested in 2.5% DMSO.
Furcarbanil (80 μM) (Sigma-Aldrich T313122), rotenone (10 μM) (Fisher Scientific 501687383), and antimycin A (2.5 μM) (Santa Cruz Biotechnology, Inc. sc-202467A) were all tested in 0.8% DMSO, and TTFA (200 μM) (Sigma-Aldrich 88300-5G) was tested in 3% DMSO.

[2] = tested on: Cryptococcus yeast (CHY3833 and CHY3836); assay: Yeast replication secondary screen (OD600); type: cell-based, Cryptococcus neoformans serotype D (deneoformans); details: 10 μM, 12 h at 30°C
Protocol: (ii) Yeast replication. CHY3833 and CHY3836 were each grown in YPD liquid overnight at 30°C to saturation and then resuspended in 0.5× YPD at an OD600 of 0.005. Strains were aliquoted into 384-well plates with inhibitors and grown for 12 h at 30°C at […] before OD600 readings were taken. Compounds that caused a >10% decrease in growth were considered yeast growth inhibitors.

[3] = tested on: normal human dermal fibroblasts (NHDF) cells; assay: Fibroblast cytotoxicity (CellTiter-Glo); type: cell-based; details: 10 µM
In short: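 Normal human dermal fibroblasts, 1 × 10^3 per well, exposed to compounds at 10 μM for 72 h at 37°C. Viability read as ATP-dependent CellTiter-Glo luminescence. Dose-response runs titrated compounds from 80 μM to 0.5 μM in duplicate.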

SMILES	germination inhibition phenotype (chemical phenotype) in QGA [1]	phenotypic concentration (concentration showing the germination phenotype in QGA) [1] [µM]	Yeast Inhibition: % Inhibition [2] [%]	Cytotoxicity: Relative Cell Viability (% of Negative Control) [3]	also measured
COc1ccc(SCCCC(=O)Nc2ncnc3sccc23)cc1 [A8]	asynchrony				
CCc1ccccc1NC(=O)c1cc(C)oc1C [B1]		80			
CN[C@@H]1[C@@H](O)[C@@H](O[C@@H]2[C@@H](O)[C@H](O[C@H]3O[C@H]([C@@H](C)O)[C@@H](O)[C@H](O)[C@H]3N)[C@@H](N)C[C@H]2N)OC[C@]1(C)O [Geneticin, reference compound]	slow-down				
CC(C)(C)c1ccc(-c2csc(N)n2)cc1 [PubChem CID 673711]	bimodal	5			
Cc1nc(NC(=O)CCc2ccccc2)sc1C [PubChem CID 733834]	morphological variability	40			
Cc1ccccc1OCCn1cnc2ccccc21 [PubChem CID 749608]	slow down	10			
CCc1ccc2nc(N)sc2c1 [PubChem CID 773093]	slow end	5			
Nc1nc(-c2ccc(Oc3ccccc3)cc2)cs1 [PubChem CID 780598]	bimodal	20			
Cc1ccc(OCCn2c(C)nc3ccccc32)cc1 [PubChem CID 790960]	slow down	80			
Nc1nc(COc2ccc3ccccc3c2)cs1 [PubChem CID 973573]	asynchrony	10			
Cc1ccccc1OCCSCc1nc2ccccc2[nH]1 [PubChem CID 1589778]	slow down	80			
Clc1ccc(OCCSCc2nc3ccccc3[nH]2)cc1 [PubChem CID 1589789]	slow down	20			
CCCOc1ccc(CSc2nc3ccccc3[nH]2)cc1 [PubChem CID 1653621]	slow down	80			
c1ccc(OCCCCSc2nc3ccccc3[nH]2)cc1 [PubChem CID 1653635]	slow down	80			
Cc1cc(C)c2sc(NN)nc2c1 [PubChem CID 2049855]	combination of the “morphological variability” and the “slow end” phenotypes				phenotypic concentration (concentration showing the germination phenotype in QGA) ([1]; listed as G2): 20 µM and 40 µM
CCCCSc1nc2ccc(C)cc2[nH]1 [PubChem CID 2129690]	slow down	80			
NNc1nc2cc3c(cc2s1)OCCO3 [PubChem CID 2771030]					germination inhibition phenotype in QGA ([1]; at 2.5 µM): bimodal; germination inhibition phenotype in QGA ([1]; at higher concentrations (5 µM)): combination phenotype of “bimodal” and “slow end”; phenotypic concentration (concentration showing the germination phenotype in QGA) ([1]; listed as G3): 2.5 µM and 5 µM
O=C(NCCc1nc2c(c(C(F)(F)F)n1)CCCC2)c1ccc(F)cc1Cl [compound 71797126]			20.3	106.4 % of Negative Control	
Cc1cc(C(=O)N2CCC(Oc3ncccc3Cl)CC2)c(C)o1 [compound 71798856]			54.8	93.6 % of Negative Control	
O=C(COc1ccccc1F)N1CCC(Oc2ncccc2Br)CC1 [compound 71799471]			2.6	101.4 % of Negative Control	

SMILES	germination inhibition phenotype (chemical phenotype) in QGA [1]	phenotypic concentration (concentration showing the germination phenotype in QGA) [1] [µM]	Yeast Inhibition: % Inhibition [2] [%]	Cytotoxicity: Relative Cell Viability (% of Negative Control) [3]	also measured
O=C(Nc1cnc(Oc2ccccc2)nc1)c1cccc(Cl)c1 [compound 71799766]			7.9	99.9 % of Negative Control	
O=C1CC(c2cccs2)CC(=O)N1Cc1csc(-c2ccccc2)n1 [compound 71801965]			3.9	95.9 % of Negative Control	
Cc1cc(C)n(-c2nc(CCNC(=O)c3cc(C)oc3C)cs2)n1 [compound 71802096]			42.7	103.6 % of Negative Control	
Cc1cc(C(=O)NCC#CCOc2cccc(C(F)(F)F)c2)c(C)o1 [compound 71803023]			44.0	90.7 % of Negative Control	
O=S(=O)(NCC#CCOc1cccc(C(F)(F)F)c1)c1cccs1 [compound 71803055]			7.0	63.8 % of Negative Control	
O=C(c1ccc(OC(F)(F)F)cc1)N(Cc1ccoc1)Cc1cccs1 [compound 71804107]			7.9	94.0 % of Negative Control	
O=C(CCc1ccccc1Br)N1CCC(c2cccs2)CC1 [compound 71807060]			5.9	100.7 % of Negative Control	
O=C(CCc1ccccc1Br)N1CCC(c2ccsc2)CC1 [compound 71807075]			9.6	93.1 % of Negative Control	
O=C(Cc1ccc(F)cc1)N1CCN(c2nc(-c3ccsc3)cs2)CC1 [compound 71811049]			4.0	99.2 % of Negative Control	
Cc1cc(C(=O)NCCn2nc(C(F)(F)F)c3c2CCCC3)c(C)o1 [compound 72718563]			79.7	92.0 % of Negative Control	
Cl.Fc1ccc(Nc2nc(-c3ccoc3)cs2)cc1F [compound 72720194]			29.6	70.6 % of Negative Control	
O=C(NC1CCN(c2nccs2)C1)c1nc2ccccc2s1 (stereo not drawn) [compound 76149097]			10.4	94.5 % of Negative Control	
O=C(C1CCC1)N1CCCCC(c2ccc(Cl)cc2)C1 (stereo not drawn) [compound 76150259]			-2.1	108.6 % of Negative Control	
O=C(c1ccc2cc[nH]c2c1)N1CCCCC(c2ccc(Cl)cc2)C1 (stereo not drawn) [compound 76150266]			-14.0	92.9 % of Negative Control	
O=C(c1ccc2nsnc2c1)N1CCSC(c2ccccc2Cl)CC1 (stereo not drawn) [compound 76151751]			14.7	97.8 % of Negative Control	
O=C(c1cc2ccccc2s1)N1CCC(c2ccsc2)CC1 [compound 91624614]			-0.5	96.6 % of Negative Control	
Cc1cc(C(=O)NCC2Cc3ccccc3CO2)c(C)o1 (stereo not drawn) [compound 91626508]			53.9	98.3 % of Negative Control	
CCCCc1nnc(NC(=O)c2cc(OC)ncn2)s1 [compound 91628556]			83.1	88.7 % of Negative Control	
Cc1cc(C(=O)NCCc2nc3c(c(C(F)(F)F)n2)COCC3)c(C)o1 [compound 91629266]			31.5	103.1 % of Negative Control	
O=C(NCc1ccnc(-c2cccs2)c1)c1nc2ccccc2s1 [compound 91630328]			3.0	93.3 % of Negative Control	
